From patent US20080268533A1, “Methods and Compositions Utilizing Myc and Gsk3Beta to Manipulate the Pluripotency of Embryonic Stem Cells” (University of Georgia Research Foundation, Inc., priority 2004, published 2008)

Assays:
[1] = tested on: vector alone cell lines; assay: Self-renewal of vector alone ES cell lines with 4OHT; type: cell-based, mouse; details: absence of LIF
Excerpt: Furthermore, authentic c-myc could maintain self-renewal in a similar manner to mycER fusions when expressed constitutively, independently of 4OHT (data not shown).

[2] = tested on: myc^Δ40-178ER cells; assay: AP activity of dominant negative myc^Δ40-178ER cells with 4OHT; type: cell-based, mouse; details: +LIF, 4OHT (25 nM), 6-day period, 92% at start
Excerpt: While ES cell colonies with a typical domed-shape morphology could be maintained in the presence of LIF and in the absence of 4OHT over extended periods (>30 days), upon addition of 4OHT myc^Δ40-178ER cells changed morphology within several days, similar to that seen in spontaneously differentiating cells (data not shown). This coincided with down-regulation of specific transcripts associated with pluripotency such as Nanog and Oct4 together with the upregulation of early mesoderm (brachyury) and neuroectoderm (Sox1) transcripts (FIG. 10A). These trends were confirmed by AP activity assays in which the percentage of AP positive colonies declined from 92% to 45% over a 6-day period in the presence of 4OHT (FIG. 10B). […] This is consistent with the results showing that c-myc has a role in self-renewal and maintenance of pluripotency.

[3] = tested on: hES BG01 cell lines transfected with c-myc^T58AER; type: cell-based
Procedure: To address this question in hESCs, clonal hES BG01 cell lines transfected with a human c-myc^T58AER gene fusion were generated, identical to that used in the previous mESC studies.
To establish a role for c-myc in HESC self-renewal, c-myc activity was enforced by the addition of 4OHT. This experiment was performed to determine whether c-myc could maintain normal HESC growth and morphology on Matrigel for a period of approximately 15 days (3 passages) in the absence of MEF-CM and bFGF, conditions where spontaneous differentiation would be anticipated. Uninduced (−40HT) cells overtly differentiated after approximately 5-6 days in a manner closely resembling untransfected hESCs when grown in the absence of MEF-CM and bFGF on Matrigel, as judged by changes in cell/colony morphology, increased cell spreading, and a reduction in cell packing density (FIGS. 11B and C and data not shown). The cell lines were also analyzed by immunoblot analysis, evaluating levels of c-myc^T58AER, c-myc, and cdk2 (FIG. 11A).
Alkaline phosphatase (AP) activity was used as a read-out to assess whether c-myc maintained hESCs were still pluripotent. 67% of colonies grown with 4OHT were AP positive in contrast to −4OHT cells where only 4% were positive after a 15 day period (FIG. 11D and data not shown). As in mouse ES cells, elevated c-myc activity caused significant cell death (data not shown).

[4] = tested on: mycER ES cells; assay: AP activity of mycER ES cells with 4OHT; type: cell-based, mouse
Procedure: In the presence of 4OHT (mycER on), ES cells retained a uniform dome-shaped colony morphology (FIG. 1B), similar to that of LIF maintained cells (data not shown). In contrast, withdrawal of 4OHT promoted a distinct flattening of colonies with a less uniform appearance (FIG. 1C) that correlated with ES cells undergoing differentiation in the absence of LIF (data not shown). The ability of c-myc to promote ES cell self-renewal was confirmed in a LIF titration assay where mycER ES cells were grown in the presence or absence of 4OHT for 6 days in media containing LIF over a range of 0-1×10^3 units per ml and then assayed for AP activity. […] MycER cells were then grown in the presence or absence of 4OHT in the absence of LIF for up to 15 days and assayed for AP activity. […] Including low levels of LIF (7.5 units/ml), that by itself had only a small effect on maintaining AP levels over 15 days, appeared to further delay the loss of AP activity in mycER cells grown with 4OHT.

[5] = tested on: myc^T58AER cells; details: 4OHT (−LIF) versus LIF maintained cells, 14-day period
Procedure: For long-term maintenance, mycER and myc^T58AER mouse ES cells were grown in ES complete media supplemented with 4-hydroxytomoxifen (4OHT) (100 nM or 2-10 nM, respectively) and re-fed every second day. For differentiation of ES cells as embryoid bodies (EB), cells were trypsinized and replated on bacteriological dishes at 1.6×10^5 cells/cm^2 and grown in ESC media (−LIF) plus or minus 4OHT to allow for EB formation. Cells were re-fed every second day and expanded after 4 days of culture. mycER cells were passaged by limited trypsinization, avoiding generation of single cell suspensions. AP activity was assayed with Alkaline Phosphatase Substrate Kit I (Vector Laboratories) according to the manufacturers' instructions. LIF titration assays were performed over a range of 0 to 1×10^3 units ESGRO per ml in the presence or absence of 4OHT by plating cells in 24 well plates.

CC/C(=C(\c1ccc(O)cc1)c1ccc(OCCN(C)C)cc1)c1ccccc1 [4OHT, 4-hydroxytomoxifen]
self-renewal [1]: did not promote self-renewal | percentage of AP positive colonies [2]: 45% | highest concentration of drug that did not promote c-myc-dependent cell death (optimal) ([3]; 4OHT titration, c-myc^T58AER BG01 cell line): 1 to 5 nM | colonies AP positive ([3]; c-myc^T58AER hESCs grown with 4OHT, Matrigel, no MEF-CM and bFGF, 15 day period): 67% | AP activity (positive) ([4]; mycER cells grown in 4OHT, 6 days, entire LIF titration range 0-1×10^3 units per ml): > 90% | AP activity ([4]; mycER cells, 14 days, −LIF, in the presence of 4OHT): significantly reduced | AP activity [5]: comparable between LIF maintained cells and those grown in the presence of 4OHT
